Data on two compounds can be found in ChEMBL document CHEMBL4715703, “Engineering of a Novel Simplified Human Insulin-Like Peptide 5 Agonist” (J Med Chem, 2016).

Each structure is given as a SMILES string. Activity calls are given as the source filed them. The calls are words filed in the database; no cut-off is given here. Where a SMILES comes first, the peptide text is derived from it. Bridges are numbered along the chain shown (N, C = ends). Roman numbers before positions name the chains, in order.

The target of assay [1] is T1, Relaxin-3 receptor 2 (Homo sapiens, UniProt Q8TDU9). Put plainly: Displacement of europium-labeled Eu(A)-mINSL5 from human RXFP4 expressed in CHO-K1 cells. In kind it is cell-based.
T1 sequence (Q8TDU9 whole entry): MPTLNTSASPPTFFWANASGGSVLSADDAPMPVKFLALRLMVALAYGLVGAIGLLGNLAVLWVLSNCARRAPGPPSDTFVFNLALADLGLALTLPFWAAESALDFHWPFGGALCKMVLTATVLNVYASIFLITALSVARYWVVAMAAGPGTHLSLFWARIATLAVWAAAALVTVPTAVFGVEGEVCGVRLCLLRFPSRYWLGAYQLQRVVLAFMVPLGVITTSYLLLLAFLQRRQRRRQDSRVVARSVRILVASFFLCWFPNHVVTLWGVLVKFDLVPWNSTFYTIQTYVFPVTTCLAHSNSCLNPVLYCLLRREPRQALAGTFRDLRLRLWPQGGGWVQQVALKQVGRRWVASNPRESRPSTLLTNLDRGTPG
Assay [2] deals with T1, Relaxin-3 receptor 2. Kind of assay: Agonist activity at human RXFP4 expressed in CHO-K1 cells assessed as reduction in forskolin-induced cAMP production by pCRE beta-galactosidase reporter assay. It counts as functional, cell-based.
The target of assay [3] is T1, Relaxin-3 receptor 2. Kind of assay: Agonist activity at human RXFP4 expressed in CHO-K1 cells assessed as induction of ERK1/2 phosphorylation incubated for 5 mins by Alpha-screen sure-fire assay. In kind it is cell-based. The settings on record: filed as agonist. (In general: In Alpha technology, singlet oxygen from a donor bead excites a nearby acceptor bead.)

A word on the Ki: it is the dissociation constant of the complex between target and ligand, obtained from inhibition or displacement. For orientation: EC50 means the concentration that produces a half-maximal response. In assay [1], `CC[C@H](C)[C@@H]1NC(=O)[C@H](Cc2ccc(O)cc2)NC(=O)[C@H]([C@@H](C)CC)NC(=O)[C@H](C(C)C)NC(=O)[C@H]([C@@H](C)O)NC(=O)[C@H](CCCNC(=N)N)NC(=O)[C@H]([C@@H](C)CC)NC(=O)[C@H](Cc2ccc(O)cc2)NC(=O)[C@H](CCC(=O)O)NC(=O)[C@H](CC(C)C)NC(=O)CNC(=O)[C@@H](NC(=O)[C@H](CC(C)C)NC(=O)[C@H](CCCNC(=N)N)NC(=O)[C@@H](NC(=O)[C@H](CO)NC(=O)[C@H](CCC(=O)O)NC(=O)[C@@H](N)CCCCN)C(C)C)CSSC[C@H](N)C(=O)N[C@@H]([C@@H](C)O)C(=O)N[C@@H](CC(=O)O)C(=O)NCC(=O)N[C@@H](C)C(=O)N[C@@H](CO)C(=O)N[C@@H](CCSC)C(=O)N[C@@H](CCCCN)C(=O)N[C@@H](CC(=O)O)C(=O)N[C@@H](CC(C)C)C(=O)N[C@@H](CO)C(=O)N[C@@H](C)C(=O)N[C@@H](CC(C)C)C(=O)N[C@H](C(=O)O)CSSC[C@@H](C(=O)N[C@@H](C)C(=O)N[C@@H](CO)C(=O)N[C@@H](CO)C(=O)N[C@@H](CCCNC(=N)N)C(=O)N[C@@H](Cc2c[nH]c3ccccc23)C(=O)O)NC1=O` (I: H-KESVRLCGLEYIRTVIYICASSRW-OH / II: H-CTDGASMKDLSALC-OH; disulfide I:7-II:1, I:19-II:14) returned a Ki of 29.5 nM. In assay [2], the EC50 stood at 20.9 nM. Besides, the result in assay [3] was Active.

For `CC[C@H](C)[C@@H]1NC(=O)[C@H](Cc2ccc(O)cc2)NC(=O)[C@H]([C@@H](C)CC)NC(=O)[C@H](C(C)C)NC(=O)[C@H]([C@@H](C)O)NC(=O)[C@H](CCCNC(=N)N)NC(=O)[C@H]([C@@H](C)CC)NC(=O)[C@H](Cc2ccc(O)cc2)NC(=O)[C@H](CCC(=O)O)NC(=O)[C@H](CC(C)C)NC(=O)CNC(=O)[C@@H](NC(=O)[C@H](CC(C)C)NC(=O)[C@H](CCCNC(=N)N)NC(=O)[C@@H](NC(=O)[C@H](CO)NC(=O)[C@H](CCC(=O)O)NC(=O)[C@@H](N)CCCCN)C(C)C)CSSC[C@@H]2NC(=O)[C@@H](NC(=O)[C@H](CC(C)C)NC(=O)[C@@H](NC(=O)[C@H](CCC(N)=O)NC(=O)[C@H](CC(C)C)NC(=O)[C@H](CC(=O)O)NC(=O)C3CCC(=O)N3)[C@@H](C)O)CSSC[C@H](NC(=O)CNC(=O)[C@H](CCC(=O)O)NC(=O)[C@H]([C@@H](C)O)NC2=O)C(=O)N[C@@H](CO)C(=O)N[C@@H](CCSC)C(=O)N[C@@H]([C@@H](C)O)C(=O)N[C@@H](CC(=O)O)C(=O)N[C@@H](CC(C)C)C(=O)N[C@@H](CO)C(=O)N[C@@H](C)C(=O)N[C@@H](CC(C)C)C(=O)N[C@H](C(=O)O)CSSC[C@@H](C(=O)N[C@@H](C)C(=O)N[C@@H](CO)C(=O)N[C@@H](CO)C(=O)N[C@@H](CCCNC(=N)N)C(=O)N[C@@H](Cc2c[nH]c3ccccc23)C(=O)O)NC1=O` (stereo partly specified), the affinity in assay [1] corresponds to a Ki of 33.1 nM. The EC50 in assay [2] was 4.57 nM. In addition, the outcome in assay [3] was Active.
